Where “and” joins values, the source holds several entries; their conditions need not be identical. Equal values may be shown once.
Assay: Biodistribution of [^18F]JHU1221823 with cold FAPI-04 blocker
Format: in vivo, mouse
Conditions: for % ID/g Bladder / % ID/g Blood / % ID/g Brain / % ID/g Fat / % ID/g Femur / % ID/g Heart / % ID/g Kidney / % ID/g Large intestine / % ID/g Liver / % ID/g Lung / % ID/g Muscle / % ID/g Pancreas / % ID/g Salivary gland / % ID/g Small intestine / % ID/g Spleen / % ID/g Stomach / % ID/g Tumor: single mouse

N#C[C@@H]1CCCN1C(=O)CNC(=O)c1ccnc2ccc(OCCCNC(=O)CCOCCOCCOCCOCCNC(=O)[C@H](CCCCNC(=O)c3ccc([18F])nc3)NC(=O)CN3CCN(CC(=O)O)CCN(CC(=O)O)CCN(CC(=O)O)CC3)cc12 [[^18F]JHU1221823]
% ID/g Mean Bladder (30 min): 2.49 % ID/g | % ID/g Bladder (30 min): 1.53 % ID/g and 3.45 % ID/g | % ID/g Mean Bladder (60 min): 5.51 % ID/g | % ID/g Bladder (60 min): 3.64 % ID/g and 7.58 % ID/g | % ID/g Mean Bladder (+ Blocker Cold FAPI-04, 60 min): 2.33 % ID/g | % ID/g Bladder (+ Blocker Cold FAPI-04, 60 min): 2.62 % ID/g and 2.04 % ID/g | % ID/g Mean Blood (30 min): 10.81 % ID/g | % ID/g Blood (30 min): 11.89 % ID/g and 9.72 % ID/g | % ID/g Mean Blood (60 min): 10.03 % ID/g | % ID/g Blood (60 min): 9.50 % ID/g and 10.76 % ID/g | % ID/g Mean Blood (+ Blocker Cold FAPI-04, 60 min): 0.25 % ID/g | % ID/g Blood (+ Blocker Cold FAPI-04, 60 min): 0.22 % ID/g and 0.28 % ID/g | % ID/g Mean Brain (30 min): 0.29 % ID/g | % ID/g Brain (30 min): 0.26 % ID/g and 0.31 % ID/g | % ID/g Mean Brain (60 min): 0.45 % ID/g | % ID/g Brain (60 min): 0.40 % ID/g and 0.50 % ID/g | % ID/g Mean Brain (+ Blocker Cold FAPI-04, 60 min): 0.09 % ID/g | % ID/g Brain (+ Blocker Cold FAPI-04, 60 min): 0.06 % ID/g and 0.11 % ID/g | % ID/g Mean Fat (30 min): 0.42 % ID/g | % ID/g Fat (30 min): 0.41 % ID/g and 0.43 % ID/g | % ID/g Mean Fat (60 min): 0.56 % ID/g | % ID/g Fat (60 min): 0.53 % ID/g and 0.58 % ID/g | % ID/g Mean Fat (+ Blocker Cold FAPI-04, 60 min): 0.21 % ID/g | % ID/g Fat (+ Blocker Cold FAPI-04, 60 min): 0.15 % ID/g and 0.27 % ID/g | % ID/g Mean Femur (30 min): 3.50 % ID/g | % ID/g Femur (30 min): 3.95 % ID/g and 3.45 % ID/g | % ID/g Mean Femur (60 min): 3.54 % ID/g | % ID/g Femur (60 min): 3.21 % ID/g and 3.87 % ID/g | % ID/g Mean Femur (+ Blocker Cold FAPI-04, 60 min): 1.78 % ID/g | % ID/g Femur (+ Blocker Cold FAPI-04, 60 min): 0.98 % ID/g and 2.58 % ID/g | % ID/g Mean Heart (30 min): 5.01 % ID/g | % ID/g Heart (30 min): 5.25 % ID/g and 4.76 % ID/g | % ID/g Mean Heart (60 min): 4.52 % ID/g | % ID/g Heart (60 min): 4.67 % ID/g and 4.58 % ID/g | % ID/g Mean Heart (+ Blocker Cold FAPI-04, 60 min): 0.28 % ID/g | % ID/g Heart (+ Blocker Cold FAPI-04, 60 min): 0.22 % ID/g and 0.33 % ID/g | % ID/g Mean Kidney (30 min): 3.17 % ID/g | % ID/g Kidney (30 min): 3.37 % ID/g and 2.96 % ID/g | % ID/g Mean Kidney (60 min): 2.75 % ID/g | % ID/g Kidney (60 min): 2.76 % ID/g and 2.75 % ID/g | % ID/g Mean Kidney (+ Blocker Cold FAPI-04, 60 min): 1.77 % ID/g | % ID/g Kidney (+ Blocker Cold FAPI-04, 60 min): 1.85 % ID/g and 1.69 % ID/g | % ID/g Mean Large intestine (30 min): 2.14 % ID/g | % ID/g Large intestine (30 min): 1.61 % ID/g and 2.67 % ID/g | % ID/g Mean Large intestine (60 min): 5.58 % ID/g | % ID/g Large intestine (60 min): 1.70 % ID/g and 5.45 % ID/g | % ID/g Mean Large intestine (+ Blocker Cold FAPI-04, 60 min): 0.47 % ID/g | % ID/g Large intestine (+ Blocker Cold FAPI-04, 60 min): 0.41 % ID/g and 0.52 % ID/g | % ID/g Mean Liver (30 min): 2.44 % ID/g | % ID/g Liver (30 min): 2.58 % ID/g and 2.30 % ID/g | % ID/g Mean Liver (60 min): 2.62 % ID/g | % ID/g Liver (60 min): 2.49 % ID/g and 2.75 % ID/g | % ID/g Mean Liver (+ Blocker Cold FAPI-04, 60 min): 0.44 % ID/g | % ID/g Liver (+ Blocker Cold FAPI-04, 60 min): 0.35 % ID/g and 0.51 % ID/g | % ID/g Mean Lung (30 min): 6.38 % ID/g | % ID/g Lung (30 min): 6.92 % ID/g and 5.83 % ID/g | % ID/g Mean Lung (60 min): 6.05 % ID/g | % ID/g Lung (60 min): 5.36 % ID/g and 6.75 % ID/g | % ID/g Mean Lung (+ Blocker Cold FAPI-04, 60 min): 0.72 % ID/g | % ID/g Lung (+ Blocker Cold FAPI-04, 60 min): 0.54 % ID/g and 0.89 % ID/g | % ID/g Mean Muscle (30 min): 1.73 % ID/g | % ID/g Muscle (30 min): 1.74 % ID/g and 1.71 % ID/g | % ID/g Mean Muscle (60 min): 1.75 % ID/g | % ID/g Muscle (60 min): 1.76 % ID/g and 1.75 % ID/g | % ID/g Mean Muscle (+ Blocker Cold FAPI-04, 60 min): 0.48 % ID/g | % ID/g Muscle (+ Blocker Cold FAPI-04, 60 min): 0.25 % ID/g and 0.61 % ID/g | % ID/g Mean Pancreas (30 min): 3.13 % ID/g | % ID/g Pancreas (30 min): 3.58 % ID/g and 2.88 % ID/g | % ID/g Mean Pancreas (60 min): 3.70 % ID/g | % ID/g Pancreas (60 min): 5.44 % ID/g and 3.95 % ID/g | % ID/g Mean Pancreas (+ Blocker Cold FAPI-04, 60 min): 0.37 % ID/g | % ID/g Pancreas (+ Blocker Cold FAPI-04, 60 min): 0.27 % ID/g and 0.46 % ID/g | % ID/g Mean Salivary gland (30 min): 8.51 % ID/g | % ID/g Salivary gland (30 min): 7.35 % ID/g and 9.57 % ID/g | % ID/g Mean Salivary gland (60 min): 8.97 % ID/g | % ID/g Salivary gland (60 min): 9.14 % ID/g and 8.79 % ID/g | % ID/g Mean Salivary gland (+ Blocker Cold FAPI-04, 60 min): 0.42 % ID/g | % ID/g Salivary gland (+ Blocker Cold FAPI-04, 60 min): 0.37 % ID/g and 0.48 % ID/g | % ID/g Mean Small intestine (30 min): 2.78 % ID/g | % ID/g Small intestine (30 min): 3.08 % ID/g and 2.48 % ID/g | % ID/g Mean Small intestine (60 min): 5.18 % ID/g | % ID/g Small intestine (60 min): 8.18 % ID/g and 3.18 % ID/g | % ID/g Mean Small intestine (+ Blocker Cold FAPI-04, 60 min): 0.99 % ID/g | % ID/g Small intestine (+ Blocker Cold FAPI-04, 60 min): 0.91 % ID/g and 1.06 % ID/g | % ID/g Mean Spleen (30 min): 2.08 % ID/g | % ID/g Spleen (30 min): 2.08 % ID/g and 2.12 % ID/g | % ID/g Mean Spleen (60 min): 2.35 % ID/g | % ID/g Spleen (60 min): 2.25 % ID/g and 2.45 % ID/g | % ID/g Mean Spleen (+ Blocker Cold FAPI-04, 60 min): 0.51 % ID/g | % ID/g Spleen (+ Blocker Cold FAPI-04, 60 min): 0.29 % ID/g and 0.38 % ID/g | % ID/g Mean Stomach (30 min): 1.52 % ID/g | % ID/g Stomach (30 min): 1.84 % ID/g and 1.21 % ID/g | % ID/g Mean Stomach (60 min): 1.68 % ID/g | % ID/g Stomach (60 min): 1.68 % ID/g and 1.57 % ID/g | % ID/g Mean Stomach (+ Blocker Cold FAPI-04, 60 min): 0.34 % ID/g | % ID/g Stomach (+ Blocker Cold FAPI-04, 60 min): 0.28 % ID/g and 0.40 % ID/g | % ID/g Mean Tumor (30 min): 3.11 % ID/g | % ID/g Tumor (30 min): 2.90 % ID/g and 3.32 % ID/g | % ID/g Mean Tumor (60 min): 6.20 % ID/g | % ID/g Tumor (60 min): 5.22 % ID/g and 7.17 % ID/g | % ID/g Mean Tumor (+ Blocker Cold FAPI-04, 60 min): 1.04 % ID/g | % ID/g Tumor (+ Blocker Cold FAPI-04, 60 min): 0.89 % ID/g and 1.19 % ID/g
